Assay results from US12162848B2, “Inhibitors of protein tyrosine phosphatase, compositions, and methods of use” (BRISTOL-MYERS SQUIBB COMPANY, priority 2022, dated 2024).

Tests used:
[1] = target: T1, PTPN2 enzyme (Homo sapiens, UniProt P17706); assay: PhosphoSens PTPN2 biochemical assay; settings: substrate AQT0264 20 μM, room temperature; read-out: PTPN2 BCHEM IC50
T1 sequence (P17706 1-415): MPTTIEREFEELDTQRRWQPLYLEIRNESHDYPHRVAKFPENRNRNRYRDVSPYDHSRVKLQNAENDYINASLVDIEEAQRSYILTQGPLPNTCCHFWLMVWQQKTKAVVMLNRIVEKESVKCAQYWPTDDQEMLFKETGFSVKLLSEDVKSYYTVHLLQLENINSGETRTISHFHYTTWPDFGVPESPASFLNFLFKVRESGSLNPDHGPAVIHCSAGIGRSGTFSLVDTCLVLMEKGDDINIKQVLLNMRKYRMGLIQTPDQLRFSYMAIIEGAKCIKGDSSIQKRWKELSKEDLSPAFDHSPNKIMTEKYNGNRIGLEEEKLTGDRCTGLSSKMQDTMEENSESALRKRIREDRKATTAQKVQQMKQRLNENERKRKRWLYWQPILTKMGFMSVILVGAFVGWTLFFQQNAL
Procedure, shortened: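 PhosphoSens fluorescence format with 20 μM final AQT0264 substrate and […] in 50 mM HEPES pH 7.5, 500 μM EGTA, […], 0.01% Brij-35, 1% glycerol, 1 mM DTT, 0.2 mg/mL BSA. Compounds in 3-fold dilution series; progress curves read (ex 360/em 480 nm) every 71 s for 1 h at room temperature.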

[2] = system: phosphorylated STAT1 protein levels in B16-F10 cells; assay: Phospho-STAT1 (Tyr701) HTRF assay in IFN-gamma treated B16-F10 cells; type: cell-based; settings: mouse IFN-gamma 100 ng/mL, 1 hour, read-out: pSTAT1 HTRF B16 EC50
Procedure, shortened: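 Mouse B16-F10 cells, 10,000/well, pretreated 1 h with compound (0.15% DMSO), then stimulated with mouse IFN-gamma at 100 ng/mL final for 1 h at 37 C. Phospho-STAT1 (Tyr701) measured by HTRF.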

[3] = system: B16-F10 cells; assay: Cell proliferation assay (CellTiter-Glo) in IFN-gamma treated B16-F10 cells; type: cell-based; settings: 120 h, mouse IFN-gamma 10 ng/mL, read-out: PTPN2 Prolif 5d B16F10 EC50
Protocol: B16-F10 cells (ATCC, Manassas, VA, #CRL-6475) were cultured in DMEM growth medium (ThermoFisher Scientific, Waltham, MA, #11995-040) supplemented with 10% heat inactivated FBS (ThermoFisher Scientific, #16140-071) and 1% pen/strep (ThermoFisher Scientific, #15140-122). The cells were seeded into two white opaque 384-well tissue culture treated microplates (PerkinElmer, Waltham, MA, #6007688) at a density of 100 cells/well in 20 uL total volume and incubated overnight at 37 C and 5% CO2. 30 nL of compounds dissolved in DMSO were then transferred from a source plate into target wells with the Echo650 acoustic liquid handler (Beckman Coulter, Indianapolis, IN). Negative control wells received 30 nL of DMSO only (0.15% final concentration). Plates were returned to the incubator for 1 hour and then cells treated with either 5 uL of growth medium or 5 uL of growth medium containing 50 ng/mL of recombinant mouse IFN-gamma protein (R&D Systems, Minneapolis, MN, #485-MI/CF, 10 ng/mL final concentration) using the Assist automated pipetting platform (INTEGRA Biosciences, Hudson, NH). Plates were incubated at 37 C for 4 days and cell proliferation assayed with the CellTiter-Glo reagent (Promega, Madison, WI, #G7573, 25 uL per well). […] Off-target compound mediated cytotoxicity was identified by checking for growth inhibition in the absence of IFNg.

Row | Structure (SMILES) | IC50 [1] | EC50 [2] | EC50 [3]
1 | O=C1CN(c2c(O)cc(-c3ccncc3)cc2F)S(=O)(=O)N1 [EXAMPLE 9, 5-(2-fluoro-6-hydroxy-4-(pyridin-4-yl)phenyl)-1,2,5-thiadiazolidin-3-one 1,1-dioxide] | 0.322 µM | ≥ 15 µM | ≥ 15 µM
2 | O=C1CN(c2c(O)cc(-c3cccc(N4CCOCC4)c3)cc2F)S(=O)(=O)N1 [EXAMPLE 16, 5-[2-fluoro-6-hydroxy-4-(3-morpholinophenyl)phenyl]-1,1-dioxo-1,2,5-thiadiazolidin-3-one] | 0.423 µM | ≥ 15 µM | ≥ 15 µM
3 | CN1CCN(Cc2cc(O)c(N3CC(=O)NS3(=O)=O)c(F)c2)CC1 [EXAMPLE 31, 5-(2-fluoro-6-hydroxy-4-((4-methylpiperazin-1-yl)methyl)phenyl)-1,2,5-thiadiazolidin-3-one 1,1-dioxide] | 0.104 µM | 2.41 µM | 1.31 µM
4 | CC(C)CCN1CCC[C@H](NCc2cc(O)c(N3CC(=O)NS3(=O)=O)c(F)c2)C1 [EXAMPLE 63, 5-[2-fluoro-6-hydroxy-4-[[[(3S)-1-isopentyl-3-piperidyl]amino]methyl]phenyl]-1,1-dioxo-1,2,5-thiadiazolidin-3-one] | 0.153 µM | ≥ 15 µM | ≥ 15 µM
5 | CC(=O)N1CCC[C@H](NCc2cc(O)c(N3CC(=O)NS3(=O)=O)c(F)c2)C1 [EXAMPLE 71, 5-[4-[[[(3S)-1-acetyl-3-piperidyl]amino]methyl]-2-fluoro-6-hydroxy-phenyl]-1,1-dioxo-1,2,5-thiadiazolidin-3-one] | 0.025 µM | 2.91 µM | 1.89 µM
6 | CNC(=O)CN1CCN(Cc2cc(O)c(N3CC(=O)NS3(=O)=O)c(F)c2)CC1 [EXAMPLE 59, 2-(4-(4-(1,1-dioxido-4-oxo-1,2,5-thiadiazolidin-2-yl)-3-fluoro-5-hydroxybenzyl)piperazin-1-yl)-N-methylacetamide] | 0.477 µM | ≥ 15 µM | ≥ 15 µM
7 | O=C1CN(c2c(O)cc(-c3ccccn3)cc2F)S(=O)(=O)N1 [EXAMPLE 7, 5-(2-fluoro-6-hydroxy-4-(pyridin-2-yl)phenyl)-1,2,5-thiadiazolidin-3-one 1,1-dioxide] | 0.568 µM | ≥ 15 µM | ≥ 15 µM
8 | COc1cncc(-c2cc(O)c(N3CC(=O)NS3(=O)=O)c(F)c2)c1 [EXAMPLE 28, 5-[2-fluoro-6-hydroxy-4-(5-methoxy-3-pyridyl)phenyl]-1,1-dioxo-1,2,5-thiadiazolidin-3-one] | 0.089 µM | ≥ 15 µM | 7.83 µM
9 | O=C1CN(c2c(O)cc(-c3ccc(N4CCOCC4)cc3)cc2F)S(=O)(=O)N1 [EXAMPLE 13, 5-[2-fluoro-6-hydroxy-4-(4-morpholinophenyl)phenyl]-1,1-dioxo-1,2,5-thiadiazolidin-3-one] | 0.466 µM | ≥ 15 µM | ≥ 15 µM
10 | CC1(C)CCC[C@H](NCc2cc(O)c(N3CC(=O)NS3(=O)=O)c(F)c2)C1 [EXAMPLE 66, (S)-5-(4-(((3,3-dimethylcyclohexyl)amino)methyl)-2-fluoro-6-hydroxyphenyl)-1,2,5-thiadiazolidin-3-one 1,1-dioxide] | 0.042 µM | 0.782 µM | 0.772 µM
11 | CC(C)CCN1CCC[C@@H](NCc2cc(O)c(N3CC(=O)NS3(=O)=O)c(F)c2)C1 [EXAMPLE 62, (R)-5-(2-fluoro-6-hydroxy-4-(((1-isopentylpiperidin-3-yl)amino)methyl)phenyl)-1,2,5-thiadiazolidin-3-one 1,1-dioxide] | 0.088 µM | ≥ 15 µM | 14.6 µM
12 | O=C1CN(c2c(O)cc(-c3ccc(O)nc3)cc2F)S(=O)(=O)N1 [EXAMPLE 26, 5-[2-fluoro-6-hydroxy-4-(6-hydroxy-3-pyridyl)phenyl]-1,1-dioxo-1,2,5-thiadiazolidin-3-one] | 0.01 µM | 2.18 µM | 3.11 µM
13 | O=C1CN(c2c(O)cc(C3CCCNC3)cc2F)S(=O)(=O)N1 (stereo not drawn) [EXAMPLE 1, 5-(2-fluoro-6-hydroxy-4-(piperidin-3-yl)phenyl)-1,2,5-thiadiazolidin-3-one 1,1-dioxide] | 0.119 µM | 1.28 µM | 0.882 µM
14 | CN1CCN(c2ccc(-c3cc(O)c(N4CC(=O)NS4(=O)=O)c(F)c3)cn2)CC1 [EXAMPLE 27, 5-[2-fluoro-6-hydroxy-4-[6-(4-methylpiperazin-1-yl)-3-pyridyl]phenyl]-1,1-dioxo-1,2,5-thiadiazolidin-3-one] | 0.457 µM | ≥ 15 µM | ≥ 15 µM
15 | O=C1CN(c2c(O)cc(-c3ccnc(-c4ccccc4)c3)cc2F)S(=O)(=O)N1 [EXAMPLE 20, 5-[2-fluoro-6-hydroxy-4-(2-phenyl-4-pyridyl)phenyl]-1,1-dioxo-1,2,5-thiadiazolidin-3-one] | 0.205 µM | ≥ 15 µM | ≥ 15 µM
16 | O=C1CN(c2c(O)cc(CN3CCOCC3)cc2F)S(=O)(=O)N1 [EXAMPLE 41, 5-(2-fluoro-6-hydroxy-4-(morpholinomethyl)phenyl)-1,2,5-thiadiazolidin-3-one 1,1-dioxide] | 0.07 µM | 3.38 µM | 3.56 µM
17 | O=C1CN(c2c(O)cc(-c3ccc(Cc4ccccc4)cc3)cc2F)S(=O)(=O)N1 [EXAMPLE 10, 5-[4-(4-benzylphenyl)-2-fluoro-6-hydroxy-phenyl]-1,1-dioxo-1,2,5-thiadiazolidin-3-one] | 6.14 µM | ≥ 15 µM | ≥ 15 µM
18 | CN(C)C1CCN(Cc2cc(O)c(N3CC(=O)NS3(=O)=O)c(F)c2)CC1 [EXAMPLE 33, 5-(4-((4-(dimethylamino)piperidin-1-yl)methyl)-2-fluoro-6-hydroxyphenyl)-1,2,5-thiadiazolidin-3-one 1,1-dioxide] | 0.094 µM | ≥ 15 µM | ≥ 15 µM
19 | O=C1CN(c2c(O)cc(-c3ccc(C4CC4)cc3)cc2F)S(=O)(=O)N1 [EXAMPLE 17, 5-[4-(4-cyclopropylphenyl)-2-fluoro-6-hydroxy-phenyl]-1,1-dioxo-1,2,5-thiadiazolidin-3-one] | 1.41 µM | 7.95 µM | ≥ 15 µM
20 | CC(C)CCN1CCCC(c2cc(O)c(N3CC(=O)NS3(=O)=O)c(F)c2)C1 (stereo not drawn) [EXAMPLE 5, 5-(2-fluoro-6-hydroxy-4-(1-isopentylpiperidin-3-yl)phenyl)-1,2,5-thiadiazolidin-3-one 1,1-dioxide] | 1.02 µM | ≥ 15 µM | ≥ 15 µM
21 | O=C1CN(c2c(O)cc(CNC3CCOCC3)cc2F)S(=O)(=O)N1 [EXAMPLE 35, 5-[2-fluoro-6-hydroxy-4-[(tetrahydropyran-4-ylamino)methyl]phenyl]-1,1-dioxo-1,2,5-thiadiazolidin-3-one] | 1.56 µM | ≥ 15 µM | ≥ 15 µM
22 | Cc1cc(OCC2CC2)cc(-c2cc(O)c(N3CC(=O)NS3(=O)=O)c(F)c2)c1 [EXAMPLE 21, 5-[4-[3-(cyclopropylmethoxy)-5-methyl-phenyl]-2-fluoro-6-hydroxy-phenyl]-1,1-dioxo-1,2,5-thiadiazolidin-3-one] | 6.96 µM | ≥ 15 µM | ≥ 15 µM
23 | CC1(C)CCC[C@@H](NCc2cc(O)c(N3CC(=O)NS3(=O)=O)c(F)c2)C1 [EXAMPLE 51, 5-[4-[[[(1R)-3,3-dimethylcyclohexyl]amino]methyl]-2-fluoro-6-hydroxy-phenyl]-1,1-dioxo-1,2,5-thiadiazolidin-3-one] | 0.035 µM | 1.15 µM | 0.656 µM
24 | O=C1CN(c2c(O)cc(CN[C@@H]3CCCN(S(=O)(=O)C4CC4)C3)cc2F)S(=O)(=O)N1 [EXAMPLE 74, 5-[4-[[[(3R)-1-cyclopropylsulfonyl-3-piperidyl]amino]methyl]-2-fluoro-6-hydroxy-phenyl]-1,1-dioxo-1,2,5-thiadiazolidin-3-one] | 0.017 µM | 11 µM | 5.65 µM
